Data: patent US8912121B2, “Herbicidal compositions comprising 4-amino-3-chloro-5-fluoro-6-(4-chloro-2-fluoro-3-methoxyphenyl)pyridine-2-carboxylic acid or a derivative thereof and certain PS II inhibitors” (Dow Agrosciences LLC, priority 2012, dated 2014)

Legend:
[1] = test system: SINAR (Sinapis arvensis, wild mustard); experiment: Postemergence herbicidal activity of mixtures in cereal crops, greenhouse; format: in vivo, Sinapis arvensis L.
Description: (§1) Seeds of the desired test plant species were planted in Sun Gro MetroMix® 306 planting mixture, which typically has a pH of 6.0 to 6.8 and an organic matter content of about 30 percent, in plastic pots with a surface area of 103.2 square centimeters (cm^2). When required to ensure good germination and healthy plants, a fungicide treatment and/or other chemical or physical treatment was applied. The plants were grown for 7-36 days in a greenhouse with an approximate 14 hour photoperiod which was maintained at about 18° C. during the day and about 17° C. during the night. Nutrients and water were added on a regular basis and supplemental lighting was provided with overhead metal halide 1000-Watt lamps as necessary. The plants were employed for testing when they reached the second or third true leaf stage.
(§2) Treatments consisted of the benzyl ester of 4-amino-3-chloro-5-fluoro-6-(4-chloro-2-fluoro-3-methoxy-phenyl)pyridine-2-carboxylic acid (Compound A), formulated as an SC, a second cereal herbicide alone and then both in combination.
(§3) Other herbicidal components were applied on an active ingredient basis and included PSII-inhibiting herbicides.
(§4) Measured aliquots of benzyl ester of 4-amino-3-chloro-5-fluoro-6-(4-chloro-2-fluoro-3-methoxy-phenyl)pyridine-2-carboxylic acid (Compound A) were placed in 25 milliliter (mL) glass vials and diluted in a volume of 1.25% (v/v) Agri-Dex® crop oil concentrate to obtain stock solutions. Compound requirements are based upon a 12 mL application volume at a rate of 187 liters per hectare (L/ha). Spray solutions of the second cereal herbicide and experimental compound mixtures were prepared by adding the stock solutions to the appropriate amount of dilution solution to form 12 mL spray solution with active ingredients in two- and three-way combinations. Formulated compounds were applied to the plant material with an overhead Mandel track sprayer equipped with an 8002E nozzle calibrated to deliver 187 L/ha over an application area of 0.503 square meters (m^2) at a spray height of 18 inches (46 cm) above average plant canopy. Control plants were sprayed in the same manner with the solvent blank.
(§5) The treated plants and control plants were placed in a greenhouse as described above and watered by sub-irrigation to prevent wash-off of the test compounds. After 20-22 days, the condition of the test plants as compared with that of the control plants was determined visually and scored on a scale of 0 to 100 percent where 0 corresponds to no injury and 100 corresponds to complete kill.
(§6) Colby's equation was used to determine the herbicidal effects expected from the mixtures (Colby, S. R. 1967. Calculation of the synergistic and antagonistic response of herbicide combinations. Weeds 15:20-22).
(§7) The following equation was used to calculate the expected activity of mixtures containing two active ingredients, A and B: Expected=A+B−(A×B/100)

[2] = test system: KCHSC (Kochia scoparia, kochia); experiment: as above; format: in vivo, Kochia scoparia (L.) Schrad.
Description: as §1, §2, §3, §4, §5, §6, §7

[3] = test system: LAMPU (Lamium purpureum, purple deadnettle); experiment: as above; format: in vivo, Lamium purpureum L.
Description: as §1, §2, §3, §4, §5, §6, §7

[4] = test system: SETFA (Setaria faberi, giant foxtail); experiment: Pre-emergence soil-applied mixtures, greenhouse; format: in vivo, Setaria faberi Herrm.; settings: 27 DAA
From the text: (§8) Seeds or nutlets of the desired test plant species were planted in a soil matrix prepared by mixing a loam soil (32 percent silt, 23 percent clay, and 45 percent sand, with a pH of about 6.5 and an organic matter content of about 1.9 percent) and calcareous grit in an 80 to 20 ratio. The soil matrix was contained in plastic pots with a volume of 1 quart and a surface area of 83.6 square centimeters (cm^2).
(§9) Treatments consisted of the benzyl ester of 4-amino-3-chloro-5-fluoro-6-(4-chloro-2-fluoro-3-methoxy-phenyl)pyridine-2-carboxylic acid (compound A) formulated as an SC (suspension concentrate) and various herbicidal components alone and in combination. Forms of compound A were applied on an acid equivalent basis.
(§10) Other herbicidal components were applied on an acid equivalent or active ingredient basis and included the PSII-inhibiting herbicides, atrazine formulated as Atrazine® 90WDG, metribuzin formulated as Metribuzin 75DF, simazine formulated as Princep Caliber 90, tebuthiuron formulated as Spike 80DF, cyanazine (technical grade material), hexazinone (technical grade material), linuron (technical grade material), terbuthylazine (technical grade material), and diuron formulated as Diuron 4L.
(§11) Treatment requirements were calculated based upon the rates being tested, the concentration of active ingredient or acid equivalent in the formulation, and a 12 mL application volume at a rate of 187 L/ha.
(§12) For treatments comprised of formulated compounds, measured amounts of compounds were placed individually in 25 mL glass vials and diluted in a volume of 1.25% (v/v) Agri-Dex® crop oil concentrate (COC) to obtain 12× stock solutions. […] Application solutions were prepared by adding an appropriate amount of each stock solution (e.g., 1 mL) and diluted to the appropriate final concentrations with the addition of 10 mL of an aqueous mixture of 1.25% (v/v) COC so that the final spray solutions contained 1.25% (v/v) COC.
(§13) For treatments comprised of technical compounds, weighed amounts can be placed individually in 25 mL glass vials and dissolved in a volume of 97:3 (v/v) acetone/DMSO to obtain 12× stock solutions. […] Application solutions can be prepared by adding an appropriate amount of each stock solution (e.g., 1 mL) and diluted to the appropriate final concentrations with the addition of 10 mL of an aqueous mixture of 1.5% (v/v) COC so that the final spray solutions contain 1.25% (v/v) COC. When technical materials are used, the concentrated stock solutions can be added to the spray solutions so that the final acetone and DMSO concentrations of the application solutions are 16.2% and 0.5%, respectively.
(§14) For treatments comprised of formulated and technical compounds, weighed amounts of the technical materials can be placed individually in 25 mL glass vials and dissolved in a volume of 97:3 (v/v) acetone/DMSO to obtain 12× stock solutions, and measured amounts of the formulated compounds can be placed individually in 25 mL glass vials and diluted in a volume of 1.5% (v/v) COC or water to obtain 12× stock solutions. […] Application solutions can be prepared by adding an appropriate amount of each stock solution (e.g., 1 mL) and diluted to the appropriate final concentrations with the addition of an appropriate amount of an aqueous mixture of 1.5% (v/v) COC so that the final spray solutions contain 1.25% (v/v) COC. As required, additional water and/or 97:3 (v/v) acetone/DMSO can be added to individual application solutions so that the final acetone and DMSO concentrations of the application solutions being compared are 8.1% and 0.25%, respectively.
(§15) All stock solutions and applications solutions were visually inspected for compound compatibility prior to application. Spray solutions were applied to the soil with an overhead Mandel track sprayer equipped with a 8002E nozzles calibrated to deliver 187 L/ha over an application area of 0.503 m^2 at a spray height of 18 inches (46 cm) above average pot height. […]

[5] = test system: SASKR (Salsola tragus, Russian thistle); experiment: Postemergence herbicidal activity of mixtures in cereal crops, greenhouse; format: in vivo, Salsola tragus L.
Description: as §1, §2, §3, §4, §5, §6, §7

[6] = test system: CHEAL (Chenopodium album, common lambsquarters); experiment: as above; format: in vivo, Chenopodium album L.
Description: as §1, §2, §3, §4, §5
(§16) Colby's equation was used to determine the herbicidal effects expected from the mixtures (Colby, S. R. 1967. Calculation of the synergistic and antagonistic response of herbicide combinations. Weeds 15:20-22). […]

[7] = test system: AMARE (Amaranthus retroflexus, redroot pigweed); experiment: as above; format: in vivo, Amaranthus retroflexus L.
Description: as §1, §2, §3, §4, §5, §16

[8] = test system: VERPE (Veronica persica, Persian speedwell); experiment: as above; format: in vivo, Veronica persica Poir.
Description: as §1, §2, §3, §4, §5, §6, §7

[9] = test system: GALAP (Galium aparine, catchweed bedstraw); experiment: as above; format: in vivo, Galium aparine L.
Description: as §1, §2, §3, §4, §5, §6, §7

[10] = test system: XANST (Xanthium strumarium, common cocklebur); experiment: Pre-emergence soil-applied mixtures, greenhouse; format: in vivo, Xanthium strumarium L.; settings: 29 DAA
From the text: as §8, §9, §10, §11, §12, §13, §14, §15

[11] = test system: IPOHE (Ipomoea hederacea, ivyleaf morningglory); experiment: Pre-emergence soil-applied mixtures, greenhouse; format: in vivo, Ipomoea hederacea (L.) Jacq.
From the text: as §8, §9, §10, §11, §12
For treatments comprised of technical compounds, weighed amounts can be placed individually in 25 mL glass vials and dissolved in a volume of 97:3 (v/v) acetone/DMSO to obtain 12× stock solutions. […]
For treatments comprised of formulated and technical compounds, weighed amounts of the technical materials can be placed individually in 25 mL glass vials and dissolved in a volume of 97:3 (v/v) acetone/DMSO to obtain 12× stock solutions, and measured amounts of the formulated compounds can be placed individually in 25 mL glass vials and diluted in a volume of 1.5% (v/v) COC or water to obtain 12× stock solutions. […]

## CSc1nnc(C(C)(C)C)c(=O)n1N [Metribuzin, 4-amino-6-(1,1-dimethylethyl)-3-(methylthio)-1,2,4-triazin-5(4H)-one, reference compound]
[1]; Metribuzin 25 g ai/ha
  Visual Weed Control (%)-21 DAA SINAR Obs: 8%
[1]; Metribuzin 50 g ai/ha
  Visual Weed Control (%)-21 DAA SINAR Obs: 15%
[2]; Metribuzin 25 g ai/ha
  Visual Weed Control (%)-21 DAA KCHSC Obs: 0%
[2]; Metribuzin 50 g ai/ha
  Visual Weed Control (%)-21 DAA KCHSC Obs: 8%
[2]; Metribuzin 100 g ai/ha
  Visual Weed Control (%)-21 DAA KCHSC Obs: 88%
[3]; Metribuzin 25 g ai/ha
  Visual Weed Control (%)-21 DAA LAMPU Obs: 3%
[3]; Metribuzin 50 g ai/ha
  Visual Weed Control (%)-21 DAA LAMPU Obs: 15%
[3]; Metribuzin 100 g ai/ha
  Visual Weed Control (%)-21 DAA LAMPU Obs: 23%
[4]; 210 g ai/ha
  Visual Weed Control (%) Obs: 43%
[4]; 420 g ai/ha
  Visual Weed Control (%) Obs: 83%
[5]; Metribuzin 25 g ai/ha
  Visual Weed Control (%)-21 DAA SASKR Obs: 8%
[5]; Metribuzin 50 g ai/ha
  Visual Weed Control (%)-21 DAA SASKR Obs: 8%
[5]; Metribuzin 100 g ai/ha
  Visual Weed Control (%)-21 DAA SASKR Obs: 67%
[6]; Metribuzin 25 g ai/ha
  Visual Weed Control (%)-21 DAA CHEAL Obs: 0%
[6]; Metribuzin 50 g ai/ha
  Visual Weed Control (%)-21 DAA CHEAL Obs: 55%

## CC(C)c1ccc(NC(=O)N(C)C)cc1 [Isoproturon, N,N-dimethyl-N′-[4-(1-methylethyl)phenyl]urea, reference compound]
[1]; Isoproturon 375 g ai/ha
  Visual Weed Control (%)-21 DAA SINAR Obs: 13%
[1]; Isoproturon 750 g ai/ha
  Visual Weed Control (%)-21 DAA SINAR Obs: 40%
[3]; Isoproturon 375 g ai/ha
  Visual Weed Control (%)-21 DAA LAMPU Obs: 3%
[3]; Isoproturon 750 g ai/ha
  Visual Weed Control (%)-21 DAA LAMPU Obs: 3%
[3]; Isoproturon 1500 g ai/ha
  Visual Weed Control (%)-21 DAA LAMPU Obs: 13%
[7]; Isoproturon 375 g ai/ha
  Visual Weed Control (%) - 21 DAA AMARE Obs: 3%
[7]; Isoproturon 750 g ai/ha
  Visual Weed Control (%) - 21 DAA AMARE Obs: 10%
[8]; Isoproturon 375 g ai/ha
  Visual Weed Control (%) - 21 DAA VERPE Obs: 8%
[8]; Isoproturon 750 g ai/ha
  Visual Weed Control (%) - 21 DAA VERPE Obs: 10%
[8]; Isoproturon 1500 g ai/ha
  Visual Weed Control (%) - 21 DAA VERPE Obs: 13%
[9]; Isoproturon 375 g ai/ha
  Visual Weed Control (%) - 21 DAA GALAP Obs: 5%
[9]; Isoproturon 750 g ai/ha
  Visual Weed Control (%) - 21 DAA GALAP Obs: 5%
[9]; Isoproturon 1500 g ai/ha
  Visual Weed Control (%) - 21 DAA GALAP Obs: 27%

## CNC(=O)N(C)c1nnc(C(C)(C)C)s1 [Tebuthiuron, N-[5-(1,1-dimethylethyl)-1,3,4-thiadiazol-2-yl]-N,N′-dimethylurea, reference compound]
[10]; Tebuthiuron 210 g ai/ha
  Visual Weed Control (%) - 29 DAA XANST Obs: 40%
[10]; Tebuthiuron 3360 g ai/ha
  Visual Weed Control (%) - 29 DAA XANST Obs: 95%
[11]; Tebuthiuron 420 g ai/ha
  Visual Weed Control (%) - 33 DAA IPOHE Obs: 87%
[11]; Tebuthiuron 840 g ai/ha
  Visual Weed Control (%) - 33 DAA IPOHE Obs: 90%
